Reference: US20150151008A1, “Contrast Media Taste Masking Formulations” (HOVIONE SCIENTIA LIMITED, priority 2013, published 2015)

Tests used:
[1] = Osmotic pressure (osmolality) in an osmometer; format: physicochemical
Description: The osmotic pressure analysis measures the driving force of a solution to displace water molecules through a membrane from the medium in one side to the other. Considering the membrane is the esophageal epithelium, high osmolality means loss of water from the surrounding tissues to the GI tract. […] […] The osmolality of the powders produced through micro-encapsulation using spray congealing and spray drying were measured and compared to those of the pure contrast agents.

[2] = Particle size and morphology by PLM / SEM imaging; format: physicochemical; details: raw, non-encapsulated iopamidol particles

CC(=O)N(CC(O)CO)c1c(I)c(C(=O)NCC(O)CO)c(I)c(C(=O)NCC(O)CO)c1I (centres unmarked) [Iohexol (raw), 1-N,3-N-bis(2,3-dihydroxypropyl)-5-[N-(2,3-dihydroxypropyl)acetamido]-2,4,6-triiodobenzene-1,3-dicarboxamide]
mOsmol at 15 mg l/mL [1]: 36 mOsmol | mOsmol at 300 mg l/mL [1]: 413 mOsmol

C[C@H](O)C(=O)Nc1c(I)c(C(=O)NC(CO)CO)c(I)c(C(=O)NC(CO)CO)c1I [Iopamidol (raw), 1-N,3-N-bis(1,3-dihydroxypropan-2-yl)-5-[(2S)-2-hydroxypropanamido]-2,4,6-triiodobenzene-1,3-dicarboxamide]
Diameter of iopamidol particles [2]: approximately 3 μm | mOsmol at 15 mg l/mL [1]: 30 mOsmol | mOsmol at 300 mg l/mL [1]: 572 mOsmol
